From patent US11001569B2, “6-membered heteroaromatic substituted cyanoindoline derivatives as NIK inhibitors” (Janssen Pharmaceutica NV, priority 2016, dated 2021)
Where “and” joins values, the source holds several entries; their conditions need not be identical. Equal values may be shown once. Read-outs that look alike come from different tables or passages of the source.

Columns and labels:
[1] = molecular target: recombinant human NF-kappaB-inducing Kinase (NIK/MAP3K14) (Homo sapiens, UniProt Q99558); assay: Inhibition of auto-phosphorylation of recombinant human NIK/MAP3K14 activity (AlphaScreen); type: biochemical; conditions: 25 microM ATP, averaged over all measurements on all batches
Procedure: Pharmacological Part Biological assay A Inhibition of auto-phosphorylation of recombinant human NF-kappaB-inducing Kinase (NIK/MAP3K14) Activity (AlphaScreen®)
NIK/MAP3K14 auto-phosphorylation activity was measured using the AlphaScreen® (αscreen) format (Perkin Elmer). All compounds tested were dissolved in dimethyl sulfoxide (DMSO) and further dilutions were made in assay buffer. Final DMSO concentration was 1% (v/v) in assays. Assay buffer was 50 mM Tris pH 7.5 containing 1 mM EGTA (ethylene glycol tetraacetic acid), 1 mM DTT (dithiothreitol), 0.1 mM Na3VO4, 5 mM MgCl2, 0.01% Tween® 20. Assays were carried out in 384 well Alphaplates (Perkin Elmer). […] Incubations were initiated by addition of GST-tagged NIK/MAP3K14 enzyme, carried out for 1 h at 25° C. and terminated by addition of stop buffer containing anti-phospho-IKK Ser176/180 antibody. Protein A Acceptor and Glutathione-Donor beads were added before reading using an EnVision® Multilabel Plate Reader (Perkin Elmer). Signal obtained in the wells containing blank samples was subtracted from all other wells and IC50's were determined by fitting a sigmoidal curve to % inhibition of control versus Log10 compound concentration.

[2] = system: JJN-3 (NIK translocated) multiple myeloma cells; assay: Antiproliferative activity on JJN-3 multiple myeloma cells (CellTiter-Glo); type: cell-based, human; conditions: JJN-3 (NIK translocated) cells, 96 hr treatment, averaged values, read-out: JJN-3 Proliferation inhibition (IC50 (nM))
Procedure: (§1) Determination of Antiproliferative Activity on JJN-3 (NIK Translocated) and KMS12-BM (NIK WT) Multiple Myeloma Cells
(§2) All compounds tested were dissolved in DMSO and further dilutions were made in culture medium. Final DMSO concentration was 0.3% (v/v) in cell proliferation assays. Viability was assessed using CellTiter-Glo cell viability assay kit (Promega). […] Cells were routinely kept as suspension cells at 37° C. in a humidified 5% CO2 atmosphere. Cells were passaged at a seeding density of 0.2×10^6/ml twice a week. Cells were seeded in black tissue culture treated 96-well plates (Perkin Elmer). Densities used for plating ranged from 15000 (JJN3) to 20000 (KMS12BM) cells per well in a total volume of 135 μl medium. Drugs and/or solvents were added (15 μl) to a final volume of 150 μl. Following 96 hr of treatment, plates were removed from the incubator and allowed to equilibrate to room temperature for approx 10 min. 75 μl CellTiter-Glo reagent was added to each well that was then covered (Perkin Elmer Topseal) and shaken on plate shaker for 10 min. Luminescence was measured on a HTS Topcount (Perkin Elmer). […] For initial screening purposes, compounds were tested using a 9 point dilution curve (serial 1:3 dilutions). For each experiment, controls (containing no drug) and a blank incubation (containing cells read at the time of compound addition) were run in parallel. The blank value was subtracted from all control and sample values. For each sample, the mean value for cell growth (in relative light units) was expressed as a percentage of the mean value for cell growth of the control.

[3] = system: KMS12-BM (NIK WT) multiple myeloma cells; assay: Antiproliferative activity on KMS12-BM multiple myeloma cells (CellTiter-Glo); type: cell-based, human; conditions: Homo sapiens, KMS-12-BM, 96 h, 96 hr treatment, averaged values, read-out: KMS-12 Proliferation inhibition (IC50 (nM))
Procedure: as §1, §2

Sequence of recombinant human NF-kappaB-inducing Kinase (NIK/MAP3K14) (Q99558 whole entry): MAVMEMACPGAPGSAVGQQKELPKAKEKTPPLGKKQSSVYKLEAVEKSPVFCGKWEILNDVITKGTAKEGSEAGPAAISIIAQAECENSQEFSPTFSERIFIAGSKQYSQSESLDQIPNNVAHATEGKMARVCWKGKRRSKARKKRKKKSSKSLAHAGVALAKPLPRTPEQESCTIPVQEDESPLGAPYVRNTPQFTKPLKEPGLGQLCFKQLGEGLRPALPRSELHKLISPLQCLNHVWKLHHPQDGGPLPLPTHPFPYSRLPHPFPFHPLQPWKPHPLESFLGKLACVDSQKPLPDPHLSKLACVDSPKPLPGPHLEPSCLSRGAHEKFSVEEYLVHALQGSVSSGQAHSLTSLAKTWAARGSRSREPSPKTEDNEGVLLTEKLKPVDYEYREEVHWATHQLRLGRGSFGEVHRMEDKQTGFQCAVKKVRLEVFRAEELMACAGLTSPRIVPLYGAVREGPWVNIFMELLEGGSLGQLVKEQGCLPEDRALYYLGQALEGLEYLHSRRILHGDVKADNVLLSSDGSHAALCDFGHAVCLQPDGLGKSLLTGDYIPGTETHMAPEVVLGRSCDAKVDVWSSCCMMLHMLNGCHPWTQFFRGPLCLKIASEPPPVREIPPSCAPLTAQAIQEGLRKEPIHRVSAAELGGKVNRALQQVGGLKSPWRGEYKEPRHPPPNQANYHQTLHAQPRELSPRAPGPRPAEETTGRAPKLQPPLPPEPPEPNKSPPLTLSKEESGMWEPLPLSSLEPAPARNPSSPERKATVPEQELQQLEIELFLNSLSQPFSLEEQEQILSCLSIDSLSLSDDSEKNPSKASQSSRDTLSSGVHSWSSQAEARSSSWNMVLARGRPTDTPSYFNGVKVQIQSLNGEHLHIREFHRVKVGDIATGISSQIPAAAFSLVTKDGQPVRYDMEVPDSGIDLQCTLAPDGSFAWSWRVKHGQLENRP

SMILES	IC50 [1]	melting point	IC50 ([2]; Homo sapiens, JJN-3, 96 h)	IC50 [3]	IC50 [2]
COCCCn1cccc(Nc2nccc(-c3cc(C#N)c4c(c3)[C@@](C)(CO)CN4)n2)c1=O [Compound 10i]	3 nM	192 °C	339 nM	4790 nM	
COc1cccnc1Nc1nccc(-c2cc(C#N)c3c(c2)[C@@](C)(CO)CN3)n1 [Compound 24]	123 nM	145 °C	6920 nM	> 10000 nM	
CCOc1ncccc1Nc1nccc(-c2cc(C#N)c3c(c2)C(C)(CO)CN3)n1 (stereo not drawn) [Compound 16]	3.8 nM	248 °C	245 nM	> 10000 nM	
COc1ncccc1Nc1nccc(-c2cc(C#N)c3c(c2)C(C)(CN2CCNCC2)CN3)n1 (stereo not drawn) [Compound 111]	14.8 nM	220 °C	669 nM	3160 nM	
C[C@]1(CO)CNc2c(C#N)cc(-c3ccnc(Nc4cccnc4OC[C@@H]4CCCO4)n3)cc21 [Compound 42]	6.2 nM	154 °C	347 nM	> 10000 nM	
CC1(CO)CNc2c(C#N)cc(-c3nc(Nc4cc(Cl)cnc4OC4CCOCC4)ncc3F)cc21 (stereo not drawn) [Compound 105]	30.9 nM	284 °C	2240 nM	~3720 nM	
Cc1cc(Nc2nccc(-c3cc(C#N)c4c(c3)C(C)(CO)CN4)n2)nc(C)n1 (stereo not drawn) [Compound 127]	4.5 nM	333 °C	~7080 nM	> 10000 nM	
C[C@]1(CO)CNc2c(C#N)cc(-c3ccnc(Nc4cccnc4OC4CCOCC4)n3)cc21 [Compound 23]	4.9 nM	213 °C	708 nM	7410 nM	
Cc1ncc(Cl)cc1Nc1nccc(-c2cc(C#N)c3c(c2)C(C)(CO)CN3)n1 (stereo not drawn) [Compound 4]	3.6 nM	277 °C and 280 °C	97 nM	~7410 nM	
COc1nc(C)ncc1Nc1nccc(-c2cc(C#N)c3c(c2)[C@@](C)(CO)CN3)n1 [Compound 129]	1.8 nM	223 °C	562 nM	> 10000 nM	
COc1ncccc1Nc1nccc(-c2cc(C#N)c3c(c2)C(C)(CN(C)CCO)CN3)n1 (stereo not drawn) [Compound 114]	32.4 nM	60 °C	3550 nM	> 10000 nM	
COc1ncccc1Nc1nccc(-c2cc(C#N)c3c(c2)C(C)(CNC2CC2)CN3)n1 (stereo not drawn) [Compound 110]	33.9 nM	116 °C	1860 nM	> 10000 nM	
CNCC1(C)CNc2c(C#N)cc(-c3ccnc(Nc4cccnc4OC)n3)cc21 (stereo not drawn) [Compound 108]	25.1 nM	173 °C	2140 nM	~3980 nM	
C[C@]1(CO)CNc2c(C#N)cc(-c3ccnc(Nc4cccnc4OC[C@H]4CCCO4)n3)cc21 [Compound 43]	4 nM	141 °C	115 nM	> 10000 nM	
COCCOc1ncccc1Nc1nccc(-c2cc(C#N)c3c(c2)[C@](C)(CO)CN3)n1 [Compound 34]	38 nM	152 °C	2880 nM	> 10000 nM	
COCCN(C)c1nc(OC)c(Nc2nccc(-c3cc(C#N)c4c(c3)[C@@](C)(CO)CN4)n2)cc1Cl [Compound 38]	19.5 nM	215 °C	79 nM	> 10000 nM	
COc1ncc(Cl)cc1Nc1nccc(-c2cc(C#N)c3c(c2)[C@](C)(COC(=O)[C@H](C)N)CN3)n1 [Compound 109]	38 nM	171 °C	794 nM	> 10000 nM	
COc1nc(C2CCOCC2)ccc1Nc1nccc(-c2cc(C#N)c3c(c2)[C@@](C)(CO)CN3)n1 [Compound 44]	9.3 nM	217 °C	81 nM	> 10000 nM	
COc1ncccc1Nc1nccc(-c2cc(C#N)c3c(c2)C(C)(CNCCS(C)(=O)=O)CN3)n1 (stereo not drawn) [Compound 112]	22.9 nM	146 °C	1820 nM	> 10000 nM	
COc1ncccc1Nc1ncc(F)c(-c2cc(C#N)c3c(c2)[C@@](C)(CO)CN3)n1 [Compound 103]	1 nM	> 250 °C	120 nM	1580 nM	

Continued by falling IC50 [1], values first:

IC50 [1]	melting point	IC50 ([2]; Homo sapiens, JJN-3, 96 h)	IC50 [3]	IC50 [2]	SMILES
117 nM	104 °C	1410 nM	2510 nM		COc1ncc(Cl)cc1Nc1nccc(-c2cc(C#N)c3c(c2)C(C)(COCCN2CCOCC2)CN3)n1 (stereo not drawn) [Compound 121]
51.3 nM	195 °C	1260 nM	> 10000 nM		CC(C)Oc1ncc(Cl)cc1Nc1nccc(-c2cc(C#N)c3c(c2)[C@@](C)(CO)CN3)n1 [Compound 30]
34.7 nM	95 °C	5750 nM	> 10000 nM		COc1ncccc1Nc1nccc(-c2cc(C#N)c3c(c2)C(C)(CN2CCOCC2)CN3)n1 (stereo not drawn) [Compound 113]
16.2 nM	200 °C		> 10000 nM	525 nM	Cc1ncc(Nc2nccc(-c3cc(C#N)c4c(c3)[C@@](C)(CO)CN4)n2)c(OCC2CCCO2)n1 (single isomer, unassigned) [Compound 137]
15.9 nM	220 °C	794 nM	> 10000 nM		CCOc1ncc(Cl)cc1Nc1nccc(-c2cc(C#N)c3c(c2)[C@@](C)(CO)CN3)n1 [Compound 35]
13.2 nM	215 °C	1120 nM	> 10000 nM		COCCOc1ccncc1Nc1nccc(-c2cc(C#N)c3c(c2)[C@@](C)(CO)CN3)n1 [Compound 47]
10.5 nM	236 °C	~347 nM	> 10000 nM		COCCNc1nc(OC)c(Nc2nccc(-c3cc(C#N)c4c(c3)[C@](C)(CO)CN4)n2)cc1Cl [Compound 11]
9.5 nM	182 °C	478 nM	4790 nM		COC[C@@]1(C)CNc2c(C#N)cc(-c3ccnc(Nc4cc(Cl)cnc4C)n3)cc21 [Compound 122]
~8.51 nM	261 °C	170 nM	> 10000 nM		CC1(CO)CNc2c(C#N)cc(-c3ccnc(Nc4cc(Cl)cnc4Cl)n3)cc21 (stereo not drawn) [Compound 5]
8.5 nM	204 °C	324 nM	> 10000 nM		COCCOc1ncc(Cl)cc1Nc1nccc(-c2cc(C#N)c3c(c2)[C@@](C)(CO)CN3)n1 [Compound 39]
8.5 nM	231 °C	58 nM	> 10000 nM		COCCNc1nc(OC)c(Nc2nccc(-c3cc(C#N)c4c(c3)[C@@](C)(CO)CN4)n2)cc1Cl [Compound 10]
6.3 nM	307 °C	209 nM	~195 nM		CC1(CO)CNc2c(C#N)cc(-c3ccnc(Nc4cncnc4)n3)cc21 (stereo not drawn) [Compound 128]
5.3 nM	238 °C	219 nM	427 nM		CCOC(=O)c1ccc(Nc2nccc(-c3cc(C#N)c4c(c3)C(C)(CO)CN4)n2)cn1 (stereo not drawn) [Compound 9]
3.6 nM	295 °C	~427 nM	> 10000 nM		Cn1cc(Cl)cc(Nc2nccc(-c3cc(C#N)c4c(c3)C(C)(CO)CN4)n2)c1=O (stereo not drawn) [Compound 15i]
2.5 nM	248 °C	288 nM	> 10000 nM		[2H]C([2H])([2H])Oc1ncccc1Nc1nccc(-c2cc(C#N)c3c(c2)C(C)(CO)CN3)n1 (stereo not drawn) [Compound 17]
0.9 nM	> 260 °C	1580 nM	> 10000 nM		COc1cnccc1Nc1nccc(-c2cc(C#N)c3c(c2)[C@@](C)(CO)CN3)n1 [Compound 20]
